Several values for one entry are separate records, joined by “and”; a condition that tells them apart may be missing. Equal entries are not always repeated.
Tests used:
[1] = test system: wild-type (WT) Samsun tobacco; test: Glasshouse spray test, wild-type tobacco; type: in vivo; settings: for % damage observed 16 DAT: w/t tobacco; for percent damage at 6 DAT / blch (% bleaching at the meristem relative to control plants) / ht (% height reduction relative to control plants): WT; for blch (% bleaching at the meristem relative to control plants) / ht (% height reduction relative to control plants): 100 g; for % damage at 7 DAT: WT Samsun, individual plants; for score on a scale from 0 to 10 (0 substantially bleached/burnt, meristem dead/white; 10 entire plant green and undamaged): 500 g/ha, 11 DAT
Procedure, shortened: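 Wild-type Samsun tobacco grown from seed was planted in 3 inch pots, grown on under glasshouse conditions (about 24-27° C. day, 18-21° C. night, ~14 h photoperiod, ~65% humidity) and spray-treated alongside transgenic lines. Test chemicals were formulated in water with 0.2% X77 surfactant and applied by track sprayer at 200 l/ha. Height reduction, bleaching and damage were scored against unsprayed control plants of like size.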

[2] = test system: HST in spinach chloroplast extract; test: HST assay (TLC, MFBQ formed), spinach chloroplast extract; type: biochemical; settings: for Spinach chloroplast extract % I at 25 ppm: TLC, estimated amount of MFBQ formed, relative to controls
Protocol: HST enzyme preparations for assay are also prepared directly from fresh plant material. For example HST enzyme preparations are from spinach. In the first step intact spinach chloroplasts are prepared from two lots of 500 g of fresh baby spinach leaves (e.g from the salad section of the local supermarket). Prepacked spinach is usually already washed, but if buying loose leaves these must be rinsed in water before proceeding. Stalks, large leaves and mid-ribs are removed. Each 500 g lot of leaves is added to 1.5 l of ‘Grinding medium’ in a 2 L plastic beaker. Grinding medium is cold (4° C.) 50 mM Tricine/NaOH buffer at pH 7.1 containing 330 mM glucose, 2 mM sodium isoascorbate, 5 mM MgCl2 and 0.1% bovine serum albumen The beaker, kept at 4° C., is placed under a Polytron 6000 blender, fitted with a 1.5″cutting probe and the mixture blended in short bursts of 5-8 sec up to 8-10K rpm until all the leaves are macerated. The homogenate is filtered into a 5 L beaker (embedded in an ice bucket) through four layers of muslin, and two layers of 50μ mesh nylon cloth. The filtrate is transferred to 250 ml buckets of a Beckman GS-6 centrifuge and spun at […] (3020 rpm) for 2 min at 4° C. The supernatant is drained away and discarded to leave a sediment of chloroplasts. Chloroplasts are resuspended in a few ml of cold resuspension medium by gentle swirling and gentle use of a quill brush soaked in resuspension medium. Resuspension medium is 50 mM Hepes/KOH pH 7.8 containing 330 mM sorbitol, 2 mM EDTA, 5 mM KH2PO4, 2 mM MgCl2 and 0.1% bovine serum albumen at 4° C. The chloroplasts are resuspended in 5-10 ml of resuspension buffer, recentrifuged down and resuspended again in order to wash them. The chloroplasts are then once again centrifuged down and then broken by resuspension in about 5 ml of 50 mM Tricine-NaOH pH 7.8 to a protein concentration of about 40 mg/ml. The solution is stored frozen at −80° C. in aliquots. This resuspension is defrosted and used directly in HST activity assays. Alternatively, chloroplasts are prepared resuspended in 50 mM Tris/HCl buffer at pH 7.8 containing 330 mM sorbitol (alternative resuspension buffer) and layered on top of a percol gradient (comprising the same buffer containing 45% percol), spun down, the intact chloroplast fraction taken and washed 2 or 3 times in the alternative resuspension buffer and then spun down again, resuspended in breaking buffer (without sorbitol), flash frozen and stored in aliquots at −80° C.
Prenyltransferase (HST) activities are measured by determining the prenylation rates of [U—^14C]homogentisate using farnesyl diphosphate (FDP) as prenyl donor. ^14C homogentisate is prepared from ^14C tyrosine using L amino acid oxidase and HPPD. For inhibitor testing, compounds are dissolved in dimethylsulfoxide (DMSO). DMSO added at up to 2% v/v has no effect on assays. Control assays contain DMSO at the same concentration as in inhibitor containing assays.
Assays using spinach chloroplast extracts (100 μl final volume) contain up to 2 mg of chloroplast protein, 50 mM Tricine-NaOH pH 8.5, 50 mM MgCl2, 200 μM farnesyl diphosphate (FDP) and 26 μM ^14C-homogentisate (167 dpm/pmol). Assays are run for about an hour at 28° C. […] Lipophilic reactions products are extracted and analyzed essentially as described in the literature.
Using the above assays percentage inhibition of the amount of MFBQ formed at a range of doses of inhibitors relative to the control amount obtained with no inhibitor present is reported (Table 1). The better inhibitors give greater percentage inhibition at lower doses.

[3] = 17 DAT, Chlamydomonas HST section
[4] = WT tobacco, spray with 500 g of compound 2.30, 7 DAT
[5] = WT tobacco, spray with 500 g of compound 2.30, 17 DAT
[6] = WT tobacco, spray with 40 g of compound 1.1, 7 DAT
[7] = WT tobacco, spray with 40 g of compound 1.1, 14 DAT

CS(=O)(=O)c1ccc(C(=O)C2C(=O)CCCC2=O)c([N+](=O)[O-])c1 [Mesotrione, mesotrione, reference compound]
Damage % 5 DAT ([1]; 10 g/ha, 5 DAT, wt plants): 55% and 50% and 60%
% damage observed 16 DAT ([1]; 37 g/ha): 66%
percent damage at 6 DAT ([1]; 100 g/ha, reps): 80% and 70%
% damage observed 16 DAT ([1]; 111 g/ha): 57%
% damage observed 16 DAT ([1]; 333 g/ha): 57%
% damage observed 16 DAT ([1]; 1000 g/ha): 54%
ht (herbicidal damage) ([1]; WT tobacco, 15 g/ha of mesotrione, 21 DAT): 90 and 85 and 75

O=c1c(-c2c(Cl)ccc(Cl)c2Cl)c(O)c2nccnc2n1CC(F)F [Compound 2.14]
Spinach chloroplast extract % I at 25 ppm [2]: 80%

O=c1c(-c2cc(C(F)(F)F)ccc2Cl)c(O)c2nccnc2n1CC(F)F [Compound 2.9]
Spinach chloroplast extract % I at 25 ppm [2]: 90%

CC(C)C(=O)Oc1c(-c2c(F)ccc(Br)c2Cl)c(=O)n(CC(F)F)c2nccnc12 [Compound 2.30]
blch (% bleaching at the meristem relative to control plants) ([1]; 7 DAT, Arabidopsis HST section): 85% and 70% and 75% and 80%
ht (% height reduction relative to control plants) ([1]; 7 DAT, Arabidopsis HST section): 80% and 85% and 75%
blch (% bleaching at the meristem relative to control plants) ([1]; 7 DAT, wheat HPPD section): 85% and 70% and 75% and 80%
ht (% height reduction relative to control plants) ([1]; 7 DAT, wheat HPPD section): 80% and 85% and 75%
blch (% bleaching at the meristem relative to control plants) [1, 3]: 85% and 70% and 75% and 80%
ht (% height reduction relative to control plants) [1, 3]: 80% and 85% and 75%
ht (% height reduction relative to control plants) ([1]; 21 DAT, wheat HPPD section): 95% and 90% and 75% and 80%
ht (% height reduction relative to control plants) ([1]; 26 DAT, Arabidopsis HST section): 95% and 90% and 75% and 80%
ht (% height reduction relative to control plants) ([1]; 26 DAT, Chlamydomonas HST section): 95% and 90% and 75% and 80%
percent damage at 6 DAT ([1]; 150 g/ha, reps): 70%
% damage at 7 DAT ([1]; 150 gai/ha): 75% and 80% and 85%
% damage at 7 DAT ([1]; 300 gai/ha): 75% and 70% and 80%
% damage at 7 DAT ([1]; 450 gai/ha): 70% (2×) and 75%
herbicide % damage ([1]; Compound 2.30, 150 g/ha, 14 DAT, WT control, reps): 60% and 70% and 75%
blch: % bleaching at the meristem relative to control plants [1, 4]: 70% and 75% and 80%
ht: % height reduction relative to control plants [1, 4]: 85% and 90%
blch: % bleaching at the meristem relative to control plants [1, 5]: 80% and 70% and 75%
ht: % height reduction relative to control plants [1, 5]: 90% and 85%
ht: % height reduction relative to control plants ([1]; WT tobacco, spray with 500 g of compound 2.30, 26 DAT): 70% and 85% and 100% and 90% and 80%

O=c1c(-c2c(F)ccc(F)c2Cl)c(O)c2nccnc2n1CC(F)F [Compound 2.3]
% damage observed 16 DAT ([1]; 37 g/ha): 17%
% damage observed 16 DAT ([1]; 111 g/ha): 40%
% damage observed 16 DAT ([1]; 333 g/ha): 47%
score on a scale from 0 to 10 (0 substantially bleached/burnt, meristem dead/white; 10 entire plant green and undamaged) ([1]; W/T_SD): 0
score on a scale from 0 to 10 (0 substantially bleached/burnt, meristem dead/white; 10 entire plant green and undamaged) ([1]; W/T_TC): 0
% damage observed 16 DAT ([1]; 1000 g/ha): 57%

Oc1c(Cl)c(F)nc(F)c1Cl [Compound 1.1, haloxydine]
Spinach chloroplast extract % I at 25 ppm [2]: 70%
inhibition of the HST reaction ([2]; final concentration 500 ppm): completely inhibit
% damage at 7 DAT ([1]; 25 gai/ha): 75%
% damaged ([1]; 250 g/ha, 8 DAT, w/t plants, 4-5 leaf): 55% and 65%
% damage ([1]; 250 g/ha, 25 DAT, w/t plants): 50-70%
blch: % bleaching at the meristem relative to control plants [1, 6]: 70% and 65% and 60% and 75% and 80%
ht: % height reduction relative to control plants [1, 6]: 60% and 65% and 75% and 70%
blch: % bleaching at the meristem relative to control plants [1, 7]: 40% and 70% and 60% and 75% and 65%
ht: % height reduction relative to control plants [1, 7]: 60% and 70% and 75% and 65%
ht: % height reduction relative to control plants ([1]; WT tobacco, spray with 40 g of compound 1.1, 21 DAT): 70% and 80% and 85% and 60% and 55% and 65%

O=c1c(-c2c(F)ccc(Br)c2Cl)c(O)c2nccnc2n1CC(F)F [Compound 2.8]
Spinach chloroplast extract % I at 25 ppm [2]: 70%

O=c1c(-c2c(F)ccc(F)c2Cl)c(O)c2cccnc2n1CC(F)F [Compound 2.13]
Spinach chloroplast extract % I at 25 ppm [2]: 40%
